Results as given in patent US20250313574A1, “SIALIC ACID DERIVATIVES AND METHODS OF USING SAME” (EISAI R&D MANAGEMENT CO., LTD., priority 2022, published 2025).

Experiments:
[1] = molecular target: Recombinant Human Siglec-3/CD33 protein (His-CD33) (Homo sapiens (Human), UniProt P20138); assay: Differential scanning fluorimetry (DSF) thermal shift assay; format: binding; conditions: difference in thermal melt of CD33 protein (0.5 μM) with 50 μM compound
[2] = molecular target: Recombinant human CD33 protein (Homo sapiens (Human), UniProt P20138); assay: CD33 competitive binding assay for HTS drug screen (fluorescent multivalent sialic acid probe)
How it was run: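 Inhibition was read as reduced retention of a fluorescent multivalent sialic acid complex (final 5 μM neutravidin, 15 μM A-375, 5 μM biotin-4-FITC) on plate-immobilized human CD33. Compound was added first, the probe followed for 30 min at room temperature in PBS with 0.2% Tween-20 and 0.5% BSA, and FITC was measured after a wash.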

Recombinant human CD33 protein, sequence (P20138 18-259): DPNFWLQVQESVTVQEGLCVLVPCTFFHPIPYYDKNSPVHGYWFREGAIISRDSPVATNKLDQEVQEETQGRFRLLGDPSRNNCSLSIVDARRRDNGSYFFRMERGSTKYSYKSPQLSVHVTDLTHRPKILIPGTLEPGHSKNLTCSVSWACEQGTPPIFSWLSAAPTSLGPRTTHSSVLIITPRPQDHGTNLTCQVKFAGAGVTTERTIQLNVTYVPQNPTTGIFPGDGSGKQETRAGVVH
Recombinant Human Siglec-3/CD33 protein (His-CD33), sequence (P20138 18-259): as above

Structure (SMILES)	DSF (dTmD) [1] [°C]	EC50 [2] [µM]
CC(=O)N[C@H]1[C@H]([C@H](O)[C@H](O)CNC(=O)c2cc(C)c(O)c(C)c2)O[C@@](C/C=C/c2cccc(CNC(=O)C3CCC(Nc4ccc(C(N)=O)cn4)CC3)c2)(C(=O)O)C[C@@H]1O (stereo partly shown) [A-258]	0.8	9.37
CC(=O)N[C@H]1[C@H]([C@H](O)[C@H](O)CNC(=O)c2cc(C)c(O)c(C)c2)O[C@@](C/C=C/c2cccc(CNC(=O)C3CCCC(Nc4ccc(C)cn4)C3)c2)(C(=O)O)C[C@@H]1O (stereo partly shown) [A-259]	3.1	5.81
Cc1cc(C(=O)NC[C@@H](O)[C@@H](O)[C@@H]2O[C@@](C/C=C/c3cccc(CNC(=O)C4CCCOC4)c3)(C(=O)O)C[C@H](O)[C@H]2NC(=O)Cn2cc(C3CCCCC3)nn2)cc(C)c1O (stereo partly shown) [A-260]	4.2	7.94
Cc1cc(C(=O)NC[C@@H](O)[C@@H](O)[C@@H]2O[C@@](C/C=C/c3cccc(CNC(=O)C4CCOCC4)c3)(C(=O)O)C[C@H](O)[C@H]2NC(=O)Cn2cc(C3CCCCC3)nn2)cc(C)c1O [A-261]	4.4	1.44
Cc1cc(C(=O)NC[C@@H](O)[C@@H](O)[C@@H]2O[C@@](C/C=C/c3cccc(CNC(=O)c4cccc(Cl)c4)c3)(C(=O)O)C[C@H](O)[C@H]2NC(=O)Cn2cc(C3CCCCC3)nn2)cc(C)c1O [A-262]	1.9	6.03
Cc1cc(C(=O)NC[C@@H](O)[C@@H](O)[C@@H]2O[C@@](C/C=C/c3cccc(CNC(=O)c4ccc(Cl)cc4)c3)(C(=O)O)C[C@H](O)[C@H]2NC(=O)Cn2cc(C3CCCCC3)nn2)cc(C)c1O [A-263]	3.5	4
Cc1cc(C(=O)NC[C@@H](O)[C@@H](O)[C@@H]2O[C@@](C/C=C/c3cccc(CNC(=O)C4CCCC4)c3)(C(=O)O)C[C@H](O)[C@H]2NC(=O)Cn2cc(C3CCCCC3)nn2)cc(C)c1O [A-264]	5.5	6.33
COCCC(=O)NCc1cccc(/C=C/C[C@]2(C(=O)O)C[C@H](O)[C@@H](NC(=O)Cn3cc(C4CCCCC4)nn3)[C@H]([C@H](O)[C@H](O)CNC(=O)c3cc(C)c(O)c(C)c3)O2)c1 [A-265]	4.1	1.37
CC(=O)N1CCC(C(=O)NCc2cccc(/C=C/C[C@]3(C(=O)O)C[C@H](O)[C@@H](NC(=O)Cn4cc(C5CCCCC5)nn4)[C@H]([C@H](O)[C@H](O)CNC(=O)c4cc(C)c(O)c(C)c4)O3)c2)CC1 [A-266]	6.2	1.38
Cc1cc(C(=O)NC[C@@H](O)[C@@H](O)[C@@H]2O[C@@](C/C=C/c3cccc(CNC(=O)C4CCCO4)c3)(C(=O)O)C[C@H](O)[C@H]2NC(=O)Cn2cc(C3CCCCC3)nn2)cc(C)c1O (stereo partly shown) [A-267]	3.8	9.17
Cc1cc(C(=O)NC[C@@H](O)[C@@H](O)[C@@H]2O[C@@](C/C=C/c3cccc(CNC(=O)C4CCCOC4)c3)(C(=O)O)C[C@H](O)[C@H]2NC(=O)Cn2cc(C3CCCCC3)nn2)cc(C)c1O (stereo partly shown) [A-268]	6.2	1.32
Cc1cc(C(=O)NC[C@@H](O)[C@@H](O)[C@@H]2O[C@@](C/C=C/c3cccc(CNC(=O)c4ccccc4C(F)(F)F)c3)(C(=O)O)C[C@H](O)[C@H]2NC(=O)Cn2cc(C3CCCCC3)nn2)cc(C)c1O [A-269]	6.5	3.46
Cc1cc(C(=O)NC[C@@H](O)[C@@H](O)[C@@H]2O[C@@](C/C=C/c3cccc(CNC(=O)c4cnccn4)c3)(C(=O)O)C[C@H](O)[C@H]2NC(=O)Cn2cc(C3CCCCC3)nn2)cc(C)c1O [A-270]	6.0	2.8
Cc1cc(C(=O)NC[C@@H](O)[C@@H](O)[C@@H]2O[C@@](C/C=C/c3cccc(CNC(=O)c4ccon4)c3)(C(=O)O)C[C@H](O)[C@H]2NC(=O)Cn2cc(C3CCCCC3)nn2)cc(C)c1O [A-271]	5.1	3.99
Cc1cc(C(=O)NC[C@@H](O)[C@@H](O)[C@@H]2O[C@@](C/C=C/c3cccc(CNC(=O)C4C5OCCC[C@H]54)c3)(C(=O)O)C[C@H](O)[C@H]2NC(=O)Cn2cc(C3CCCCC3)nn2)cc(C)c1O (stereo partly shown) [A-272]	4.9	9.64
Cc1cc(C(=O)NC[C@@H](O)[C@@H](O)[C@@H]2O[C@@](C/C=C/c3cccc(CNC(=O)c4ccn(C)c(=O)c4)c3)(C(=O)O)C[C@H](O)[C@H]2NC(=O)Cn2cc(C3CCCCC3)nn2)cc(C)c1O [A-273]	5.4	9.94
Cc1cc(C(=O)NC[C@@H](O)[C@@H](O)[C@@H]2O[C@@](C/C=C/c3cccc(CNC(=O)CC4CCOCC4)c3)(C(=O)O)C[C@H](O)[C@H]2NC(=O)Cn2cc(C3CCCCC3)nn2)cc(C)c1O [A-274]	5.7	4.7
Cc1cc(C(=O)NC[C@@H](O)[C@@H](O)[C@@H]2O[C@@](C/C=C/c3cccc(CNC(=O)c4ccn(-c5ccccn5)n4)c3)(C(=O)O)C[C@H](O)[C@H]2NC(=O)Cn2cc(C3CCCCC3)nn2)cc(C)c1O [A-275]	7.0	8.63

Structure (SMILES)	DSF (dTmD) [1] [°C]	EC50 [2] [µM]
Cc1cc(C(=O)NC[C@@H](O)[C@@H](O)[C@@H]2O[C@@](C/C=C/c3cccc(CNC(=O)c4scnc4C)c3)(C(=O)O)C[C@H](O)[C@H]2NC(=O)Cn2cc(C3CCCCC3)nn2)cc(C)c1O [A-276]	6.2	2.92
Cc1cc(C(=O)NC[C@@H](O)[C@@H](O)[C@@H]2O[C@@](C/C=C/c3cccc(CNC(=O)c4cn[nH]c4)c3)(C(=O)O)C[C@H](O)[C@H]2NC(=O)Cn2cc(C3CCCCC3)nn2)cc(C)c1O [A-277]	4.3	10.2
Cc1cc(C(=O)NC[C@@H](O)[C@@H](O)[C@@H]2O[C@@](C/C=C/c3cccc(CNC(=O)c4ccc5[nH]ccc5c4)c3)(C(=O)O)C[C@H](O)[C@H]2NC(=O)Cn2cc(C3CCCCC3)nn2)cc(C)c1O [A-278]	8.8	1.74
COc1cc(C(=O)NCc2cccc(/C=C/C[C@]3(C(=O)O)C[C@H](O)[C@@H](NC(=O)Cn4cc(C5CCCCC5)nn4)[C@H]([C@H](O)[C@H](O)CNC(=O)c4cc(C)c(O)c(C)c4)O3)c2)ccc1O [A-279]	4.5	10.4
Cc1cc(C(=O)NC[C@@H](O)[C@@H](O)[C@@H]2O[C@@](C/C=C/c3cccc(CNC(=O)c4ccc5[nH]cnc5c4)c3)(C(=O)O)C[C@H](O)[C@H]2NC(=O)Cn2cc(C3CCCCC3)nn2)cc(C)c1O [A-280]	3.8	4.9
Cc1cc(C(=O)NC[C@@H](O)[C@@H](O)[C@@H]2O[C@@](C/C=C/c3cccc(CNC(=O)C4CCC(NS(C)(=O)=O)CC4)c3)(C(=O)O)C[C@H](O)[C@H]2NC(=O)Cn2cc(C3CCCCC3)nn2)cc(C)c1O (stereo partly shown) [A-281]	6.9	1.52
Cc1cc(C(=O)NC[C@@H](O)[C@@H](O)[C@@H]2O[C@@](C/C=C/c3cccc(CNC(=O)C4CCC[C@H](NS(C)(=O)=O)C4)c3)(C(=O)O)C[C@H](O)[C@H]2NC(=O)Cn2cc(C3CCCCC3)nn2)cc(C)c1O (stereo partly shown) [A-282]	6.2	1.68
Cc1cc(C(=O)NC[C@@H](O)[C@@H](O)[C@@H]2O[C@@](C/C=C/c3ccccc3)(C(=O)O)C[C@H](O)[C@H]2NC(=O)Cn2cc(C3CCCCC3)nn2)cc(C)c1O [A-283]	2.1	102
Cc1cc(C(=O)NC[C@@H](O)[C@@H](O)[C@@H]2O[C@@](C/C=C/c3ccc4c(c3)C(NC(=O)C3CCCOC3)CC4)(C(=O)O)C[C@H](O)[C@H]2NC(=O)Cn2cc(C3CCCCC3)nn2)cc(C)c1O (stereo partly shown) [A-284]	6.8	1.66
Cc1cc(C(=O)NC[C@@H](O)[C@@H](O)[C@@H]2O[C@@](C/C=C/c3cccc(CNC(=O)OC(C)(C)C)c3)(C(=O)O)C[C@H](O)[C@H]2NC(=O)Cn2cc(C3CCCCC3)nn2)cc(C)c1O [A-285]	9.0	9.98
Cc1ccc(CNC(=O)C2CCCOC2)cc1/C=C/C[C@]1(C(=O)O)C[C@H](O)[C@@H](NC(=O)Cn2cc(C3CCCCC3)nn2)[C@H]([C@H](O)[C@H](O)CNC(=O)c2cc(C)c(O)c(C)c2)O1 (stereo partly shown) [A-286]	2.2	2.84
Cc1ccc(CN(C)C(=O)C2CCCOC2)cc1/C=C/C[C@]1(C(=O)O)C[C@H](O)[C@@H](NC(=O)Cn2cc(C3CCCCC3)nn2)[C@H]([C@H](O)[C@H](O)CNC(=O)c2cc(C)c(O)c(C)c2)O1 (stereo partly shown) [A-287]	6.0	1.16
CC(=O)N[C@H]1[C@H]([C@H](O)[C@H](O)CNC(=O)c2cc(C)c(O)c(C)c2)O[C@@](C/C=C/c2ccccc2CNC(=O)OC(C)(C)C)(C(=O)O)C[C@@H]1O [A-288]	5.3	2.68
CC(=O)N[C@H]1[C@H]([C@H](O)[C@H](O)CNC(=O)c2cc(C)c(O)c(C)c2)O[C@@](C/C=C/c2cc(CNC(=O)C3CCCOC3)ccc2C)(C(=O)O)C[C@@H]1O (stereo partly shown) [A-289]	5.3	2.68
CC(=O)N[C@H]1[C@H]([C@H](O)[C@H](O)CNC(=O)c2cc(C)c(O)c(C)c2)O[C@@](C/C=C/c2cc(CNC(=O)C3CCCOC3)ccc2C)(C(=O)O)C[C@@H]1O (stereo partly shown) [A-290]	2.0	20.4
CC(=O)N[C@H]1[C@H]([C@H](O)[C@H](O)CNC(=O)c2cc(C)c(O)c(C)c2)O[C@@](C/C=C/c2cccc(-c3cc(N)on3)c2)(C(=O)O)C[C@@H]1O [A-291]	2.9	4.3
CC(=O)N[C@H]1[C@H]([C@H](O)[C@H](O)CNC(=O)c2cc(C)c(O)c(C)c2)O[C@@](C/C=C/c2cccc(CN(C)C(=O)C3CCCOC3)c2)(C(=O)O)C[C@@H]1O (stereo partly shown) [A-292]	4.0	3.02
